ChEMBL document CHEMBL1157187, “Chemical synthesis of 2beta-amino-5alpha-androstane-3alpha,17beta-diol N-derivatives and their antiproliferative effect on HL-60 human leukemia cells” (Bioorg Med Chem, 2008)

Assays:
HL-60 [1] = assay: Growth inhibition of human HL60 cells at 10 uM after 3 days; format: functional; conditions: HL-60, 72 h
HL-60 [2] = assay: Growth inhibition of human HL60 cells at 1 uM after 3 days; format: functional; conditions: HL-60, 72 h

SMILES | inhibition at 10 µM (HL-60 [1]) | inhibition at 1 µM (HL-60 [2])
C[C@]12C[C@H](N3CCN(c4ccc([N+](=O)[O-])cc4)CC3)[C@@H](O)C[C@@H]1CC[C@@H]1[C@@H]2CC[C@]2(C)[C@@H](O)CC[C@@H]12 | 92.2% | 12.5%
C[C@]12C[C@H](NCCCc3ccccc3)[C@@H](O)C[C@@H]1CC[C@@H]1[C@@H]2CC[C@]2(C)[C@@H](O)CC[C@@H]12 | 37.6% | 0.9%
CCCCCCCCCN[C@H]1C[C@@]2(C)[C@@H](CC[C@@H]3[C@@H]2CC[C@]2(C)[C@@H](O)CC[C@@H]32)C[C@@H]1O | 89.9% | 3.9%
CCCC(C)N1CCN([C@H]2C[C@@]3(C)[C@@H](CC[C@@H]4[C@@H]3CC[C@]3(C)[C@@H](O)CC[C@@H]43)C[C@@H]2O)CC1 (some centres not stated) | 9.2% | 0%
CCCCCCCCC(=O)N1CCN([C@H]2C[C@@]3(C)[C@@H](CC[C@@H]4[C@@H]3CC[C@]3(C)[C@@H](O)CC[C@@H]43)C[C@@H]2O)CC1 | 99% | 8.1%
C[C@]12C[C@H](N3CCN(c4ccccc4)CC3)[C@@H](O)C[C@@H]1CC[C@@H]1[C@@H]2CC[C@]2(C)[C@@H](O)CC[C@@H]12 | 36.6% | 7%
C[C@]12C[C@H](N3CCNCC3)[C@@H](O)C[C@@H]1CC[C@@H]1[C@@H]2CC[C@]2(C)[C@@H](O)CC[C@@H]12 | 5.9% | 6.9%
C[C@]12C[C@H](C3NCCc4ccccc43)[C@@H](O)C[C@@H]1CC[C@@H]1[C@@H]2CC[C@]2(C)[C@@H](O)CC[C@@H]12 (some centres not stated) | 29.6% | 3.4%
C[C@]12C[C@H](N3CCN(c4ccc(F)cc4)CC3)[C@@H](O)C[C@@H]1CC[C@@H]1[C@@H]2CC[C@]2(C)[C@@H](O)CC[C@@H]12 | 10.1% | 0%
CCCCCCCCCN(CCCCCCCCC)[C@H]1C[C@@]2(C)[C@@H](CC[C@@H]3[C@@H]2CC[C@]2(C)[C@@H](O)CC[C@@H]32)C[C@@H]1O | 41.5% | 9.8%
C[C@]12C[C@H](N3CCN(CCO)CC3)[C@@H](O)C[C@@H]1CC[C@@H]1[C@@H]2CC[C@]2(C)[C@@H](O)CC[C@@H]12 | 17.7% | 0.8%
C[C@]12C[C@H](N3CCN(C(=O)C4CCCCC4)CC3)[C@@H](O)C[C@@H]1CC[C@@H]1[C@@H]2CC[C@]2(C)[C@@H](O)CC[C@@H]12 | 3.9% | 0%
C[C@]12C[C@H](N3CCN(CC4CCCCC4)CC3)[C@@H](O)C[C@@H]1CC[C@@H]1[C@@H]2CC[C@]2(C)[C@@H](O)CC[C@@H]12 | 4% | 0%
C[C@]12C[C@H](N3CCN(Cc4ccccc4)CC3)[C@@H](O)C[C@@H]1CC[C@@H]1[C@@H]2CC[C@]2(C)[C@@H](O)CC[C@@H]12 | 25.7% | 0%
CCCCCN[C@H]1C[C@@]2(C)[C@@H](CC[C@@H]3[C@@H]2CC[C@]2(C)[C@@H](O)CC[C@@H]32)C[C@@H]1O | 0% | 0%
C[C@]12C[C@H](N3CCCC3)[C@@H](O)C[C@@H]1CC[C@@H]1[C@@H]2CC[C@]2(C)[C@@H](O)CC[C@@H]12 | 9.9% | 0%
C[C@]12C[C@H](N3CCC(Cc4ccccc4)CC3)[C@@H](O)C[C@@H]1CC[C@@H]1[C@@H]2CC[C@]2(C)[C@@H](O)CC[C@@H]12 | 57.9% | 9.9%
C[C@]12C[C@H](NC3CCCCCC3)[C@@H](O)C[C@@H]1CC[C@@H]1[C@@H]2CC[C@]2(C)[C@@H](O)CC[C@@H]12 | 0% | 0%
C[C@]12C[C@H](N3CCN(C(=O)c4ccccc4)CC3)[C@@H](O)C[C@@H]1CC[C@@H]1[C@@H]2CC[C@]2(C)[C@@H](O)CC[C@@H]12 | 11.4% | 0%
CCCCCCCCCCN[C@H]1C[C@@]2(C)[C@@H](CC[C@@H]3[C@@H]2CC[C@]2(C)[C@@H](O)CC[C@@H]32)C[C@@H]1O | 96.9% | 0%
CCN1CCN([C@H]2C[C@@]3(C)[C@@H](CC[C@@H]4[C@@H]3CC[C@]3(C)[C@@H](O)CC[C@@H]43)C[C@@H]2O)CC1 | 4.8% | 0%

SMILES | inhibition at 10 µM (HL-60 [1]) | inhibition at 1 µM (HL-60 [2])
C[C@]12C[C@H](N3CCN(c4ccccn4)CC3)[C@@H](O)C[C@@H]1CC[C@@H]1[C@@H]2CC[C@]2(C)[C@@H](O)CC[C@@H]12 | 26.1% | 0%
CC(C)N[C@H]1C[C@@]2(C)[C@@H](CC[C@@H]3[C@@H]2CC[C@]2(C)[C@@H](O)CC[C@@H]32)C[C@@H]1O | 0% | 0%
C[C@]12C[C@H](NC3CCCCC3)[C@@H](O)C[C@@H]1CC[C@@H]1[C@@H]2CC[C@]2(C)[C@@H](O)CC[C@@H]12 | 0% | 0%
CC(C)CN1CCN([C@H]2C[C@@]3(C)[C@@H](CC[C@@H]4[C@@H]3CC[C@]3(C)[C@@H](O)CC[C@@H]43)C[C@@H]2O)CC1 | 5% | 0%
C[C@]12C[C@H](n3cccn3)[C@@H](O)C[C@@H]1CC[C@@H]1[C@@H]2CC[C@]2(C)[C@@H](O)CC[C@@H]12 | 12.8% | 8.4%
C[C@]12C[C@H](N3CCCNCC3)[C@@H](O)C[C@@H]1CC[C@@H]1[C@@H]2CC[C@]2(C)[C@@H](O)CC[C@@H]12 | 21.4% | 1%
C[C@]12C[C@H](N3CCC(N4CCCCC4)CC3)[C@@H](O)C[C@@H]1CC[C@@H]1[C@@H]2CC[C@]2(C)[C@@H](O)CC[C@@H]12 | 77.8% | 0%
CCCCCCN[C@H]1C[C@@]2(C)[C@@H](CC[C@@H]3[C@@H]2CC[C@]2(C)[C@@H](O)CC[C@@H]32)C[C@@H]1O | 6.9% | 0%
CCC(=O)N1CCN([C@H]2C[C@@]3(C)[C@@H](CC[C@@H]4[C@@H]3CC[C@]3(C)[C@@H](O)CC[C@@H]43)C[C@@H]2O)CC1 | 0% | 0%
CN1CCN([C@H]2C[C@@]3(C)[C@@H](CC[C@@H]4[C@@H]3CC[C@]3(C)[C@@H](O)CC[C@@H]43)C[C@@H]2O)CC1 | 16.2% | 0%
CCCCN1CCN([C@H]2C[C@@]3(C)[C@@H](CC[C@@H]4[C@@H]3CC[C@]3(C)[C@@H](O)CC[C@@H]43)C[C@@H]2O)CC1 | 7.6% | 0%
C[C@]12C[C@H](NCCc3ccccc3)[C@@H](O)C[C@@H]1CC[C@@H]1[C@@H]2CC[C@]2(C)[C@@H](O)CC[C@@H]12 | 42.8% | 9.5%
CC(C)CN[C@H]1C[C@@]2(C)[C@@H](CC[C@@H]3[C@@H]2CC[C@]2(C)[C@@H](O)CC[C@@H]32)C[C@@H]1O | 0% | 0%
C[C@]12C[C@H](N3CCOCC3)[C@@H](O)C[C@@H]1CC[C@@H]1[C@@H]2CC[C@]2(C)[C@@H](O)CC[C@@H]12 | 8.7% | 14.9%
CCCCCCCCCCCN[C@H]1C[C@@]2(C)[C@@H](CC[C@@H]3[C@@H]2CC[C@]2(C)[C@@H](O)CC[C@@H]32)C[C@@H]1O | 96.3% | 0%
CCCCCN1CCN([C@H]2C[C@@]3(C)[C@@H](CC[C@@H]4[C@@H]3CC[C@]3(C)[C@@H](O)CC[C@@H]43)C[C@@H]2O)CC1 | 7.7% | 0%
CC(C)C(=O)N1CCN([C@H]2C[C@@]3(C)[C@@H](CC[C@@H]4[C@@H]3CC[C@]3(C)[C@@H](O)CC[C@@H]43)C[C@@H]2O)CC1 | 1.1% | 0%
CC(=O)N1CCN([C@H]2C[C@@]3(C)[C@@H](CC[C@@H]4[C@@H]3CC[C@]3(C)[C@@H](O)CC[C@@H]43)C[C@@H]2O)CC1 | 0% | 0%
CCCCCCCCCCCCCCCCN[C@H]1C[C@@]2(C)[C@@H](CC[C@@H]3[C@@H]2CC[C@]2(C)[C@@H](O)CC[C@@H]32)C[C@@H]1O | 94.8% | 0%
CCCCCCCCCCCCN[C@H]1C[C@@]2(C)[C@@H](CC[C@@H]3[C@@H]2CC[C@]2(C)[C@@H](O)CC[C@@H]32)C[C@@H]1O | 92% | 0%
